The results in this text go back to US5463093A, “Palladium complexes and methods for using same in the treatment of tumors or Psoriasis” (priority 1993, dated 1995).

“Also recorded” adds a separate entry of the source.

One data set concerns DNA (CT). The experiment in a line: Cyclic voltammetry of charge interactions with DNA. It is filed as biochemical. Here is the method:
16, 1993. […] 18, 1993. […] 30, 1993.
The structures of these complexes, as shown in the Examples, were also studied by Fourier transform-infrared spectroscopy (FTIR).
The working electrode used a smile mercury drop, the reference electrode was Ag/AgCl wire in KCl solution housed behind a porous Vycor frit and the counter electrode was Ag/AgCl wire. A reversing scan was performed from either 0 or -0.3 Volt to -1.0 Volts at 20 μA or 100 μA sensitivity and a scan rate of 100 mv/sec. Before the reductase sample was run, 9.0 ml of acetate buffer background electrolyte at pH 5.0 was purged for 8 minutes by vigorous bubbling of nitrogen. The addition of each sample was followed by two minutes of nitrogen purging.
In this example, 1.0 ml of a 5 mg/ml DNA solution was added to 250 μl of a 0.12μ Poly-RC solution. […] This scan was run from 0 to -1.0 volts at 20 μA sensitivity.
The amount of energy transferred is calculated from the shift in the voltage and current coordinates in terms of the Nernst relation. This interpretation of shifts in electro-potential curves follows the interpretations of electrochemistry literature, e.g., Maloy, "Factors Affecting the Shape of Current Potential Curves," I. Chem. Ed., 60(4):285-289 (April 1983); Rieger, Electrochemistry, Prentice Hall (1987); and Riley et al., Principles of Electroanalytical Methods, John Wiley (1987).
FIG. 6A was run from 0 to -1.0 volts at 100 μA sensitivity, while Rigure 6B was run from -0.3 to -1.0 volts at 20 μA sensitivity.
Both scans were run from -0.3 to -1.0 volts at 20 μA sensitivity. […] Biochem, 51(1 and 2):221 (August 1993).

Another data set concerns tumors. Kind of data set: Compassionate IND studies in tumor patients. It is filed as in vivo, human. The note with it: for liquefaction of carcinomas, adenocarcinomas, melanomas and metastases / shrinkage of carcinomas, adenocarcinomas, melanomas and metastases: patients. An excerpt:
(§1) Data reporting therapeutic effects are best presented by independent institutional protocols. Compassionate Investigational New Drug studies in humans involving administration of the novel polynucleotide reductases were begun in November of 1992 and are presently ongoing.
However, the precise route of administration, dosage and frequency of administration is individualized for each patient and can vary over a wide range depending on the particular disease state being treated, the condition of the patient and the like.

Data set [1] can be described thus: UV spectroscopy after air oxidation of the solution. The conditions noted are these: ninety days of air oxidation of the solution; UV spectra. It is filed as physicochemical. An excerpt:
There is no UV peak. FIGS. 2B and 2C show ultraviolet spectra of Pd-Lipoic Acid Complex (Poly-RC) with a concentration of 2×10^-6 M in FIG. 2B and 10^-6 M in FIG. 2C. FIGS. 2D and 2E show ultraviolet absorbance spectra of oxidized Poly RC after ninety days of air oxidation of the solution (experiment conducted Jun 11, 1993). In FIGS. 2D and 2E, the concentration is 0.00012 M. In FIG. 2D, the spectrum is ended at 400.0 nm and 0.542 A, and a reference peak is at 289.0 nm and 0.75 A. In FIG. 2E, the spectrum is ended at 550.0 nm and 0.036 A, and a reference peak is at 396.0 nm and 0.553 A. FIG. 2F illustrates the absorbance spectra of Pd-lipoic acid complexes at varying ratios of palladium to lipoic acid at a Pd concentration of 5×10^-5 M. The ratios are 1 Pd: 1 lipoic=n 1, 1 Pd: 2 lipoic=n 2, and 1 Pd: 3 lipoic=n 3. […] The reference peak of B12 is at 361.2 nm and 0.042 A and the reference peak of B12 Ac is at 358.6 nm and 0.044 A.
After ninety days of air oxidation of the Poly-RC solution, an ultraviolet spectra was again obtained on the Shimadzu UV spectrophotometer. In both instances, a 1.2×10^-4 μ solution was employed. […] FIG. 2E illustrates the visible range of the Poly RC, in which range an inflection is estimated as occurring at 396 nm. These spectra showing a shift from the fresh Poly RC solution are consistent with the view that Poly RC is a redox complex.

The test system of data set [2] is Brewer's yeast (Saccharomyces cerevisae) / Baker's yeast. Kind of data set: Induction of new yeast form (cell morphology, phase microscopy). It is filed as cell-based. The conditions noted are these: Poly-R2 10^-7 M, 30 minutes at 28° C. Here is the method:
Brewer's yeast (Saccharomyces cerevisae) was cultured in 2.0% malt extract and 2.0% sucrose.
The yeast was incubated for 30 minutes at 28° C. and examined under phase microscopy.

Data set [3] deals with metastatic lesions to the liver. The conditions noted are these: patients with metastatic lesions to the liver.
Excerpt: as §1

In the case of palladium-lipoic acid complex [Poly-RC], in the data set with DNA (CT) (250 μl of 0.12 M Poly-RC + 1.0 ml DNA 5 mg/ml, 0 to -1.0 volts, 20 μA), the “charge interaction of Poly-RC with DNA (voltammetric wave)” value is “double peaked catalytic wave of Poly-RC was altered on the addition of DNA; also recorded: current had dropped and voltage had moved in the oxidative direction; also recorded: DNA oxidizes Poly-RC”. Further, in the data set with tumors, the “liquefaction of carcinomas, adenocarcinomas, melanomas and metastases” value was “developing non-hemorrhagic central liquefaction”; the “shrinkage of carcinomas, adenocarcinomas, melanomas and metastases” value is listed as “shrinking”. In addition, the “redox state after air oxidation” value in data set [1] is “in the oxidative state”.
With “thiamine salt of a palladium-lipoic acid complex [Poly-R2]”, the “magnitude of voltammetric shifts with DNA” value in the data set on DNA (CT) (Poly-R2 compared with Poly-RC) was “greater magnitude”. The “reduction of DNA” value in the data set on DNA (CT) (cyclic voltammetry) is “can reduce both DNA and RNA”. In addition, the “loss of lipid droplets during giantization of yeast cells” value in data set [2] (FIG. 8B) is “lipid droplets are lost from the cell; also recorded: lipid drops are lost from the cell”. In addition, the “altered cell morphology of yeast cells” value in data set [2] (phase microscopy) is “Large fiat cells were one kind of new variety; also recorded: altered cell morphology of yeast cells”. Also, in the data set with tumors, the “liquefaction of carcinomas, adenocarcinomas, melanomas and metastases” value is listed as “developing non-hemorrhagic central liquefaction”; the “shrinkage of carcinomas, adenocarcinomas, melanomas and metastases” value is given as “shrinking”. Besides, in the data set on tumors (terminally ill patients, objective criteria), the “reduction in tumor size” value is “reduction in tumor size by objective criteria”. In the data set with tumors (terminally ill patients, subjective), the “relief of symptoms caused by various cancers” value was “subjective relief of symptoms”. Besides, in data set [3], the “enlargement of the liver” value is recorded as “no longer palpable” and the serum albumen levels result is “return to normal”.
